The test system of one test is Streptococcus mutans. The following applies: especially with respect to Streptococcus mutans; cited from earlier work.
Test [1] in a line: Antimicrobial/bacteriostatic effect of zinc oxide at low levels. The settings on record: even at low levels.

With `[O]=[Zn]` [Zinc oxide, Zinc Oxide], the antimicrobial properties entry in the test with Streptococcus mutans is reported as “antimicrobial properties”. Also, in test [1], the antimicrobial/bacteriostatic effect entry is recorded as “effective antimicrobial/bacteriostatic effect”.

The values are drawn from patent publication US6555125B2, “Lesion and ulcer medication” (priority 1999, dated 2003).
